One test relates to H3K4me3 in MV4-11 cells. Kind of test: MV4-11 H3K4me3 Cellular ELISA Assay. Particulars: Homo sapiens, MV4-11, 48 h. The class given is cell-based. The protocol: MV4-11 H3K4me3 Cellular ELISA Assay
MV4-11 (ATCC® CRL-9591™) was cultured with RPMI1640 medium (Thermo Fisher Scientific, cat #11875) supplemented with 10% FBS (Thermo Fisher Scientific, cat #10099141) and 50 U/ml Penicillin-Streptomycin (Thermo Fisher Scientific, cat #10378016) in humidified incubator at 37° C., 5% CO2.
200 nL compounds dissolved in DMSO were serially diluted at 1:3 ratio for 12 points starting from 10 mM and dispensed into each wells of cell culture plates (PDL-coated ViewPlate-384 Black, FTC, PerkinElmer, #6007710). 3,750 MV4-11 cells in 40 μL culture medium were seeded into each well and treated with desired concentration for 48 hours. After treatment, wash cells with cold phosphate based buffer (PBS, pH 7.4) and aspirate the remaining PBS buffer. Crude histone lysate was extracted by 40 μL 0.5M HCl for 1 hour in 4° C. following neutralization by adding 32 μL neutralization buffer (0.5M Sodium phosphate dibasic, pH ˜12.5, 1.25 mM Dithiothreitol, Promega #V3151, Protease Inhibitor Cocktail, Sigma #8340) for each well. 5 μL and 20 μL of histone lysate was loaded to ELISA plate (384 Well Plates, PE HB, White, 6005620) for detection of total H3 and H3K4me3, respectively. Shake the plates gently in 4° C. for overnight. After histone binding, plates were washed with 80 μL PBS/T (PBS with 0.05% Tween-20) and blocked with 50 μL 3% BSA diluted in PBS/T per well for 1 hour. Incubate wells with primary antibody for 1 hour at room temperature using anti-H3K4me3 (CST #9727) and anti-total H3 (CST #9715) diluted 1:2000 in 3% BSA. Plates were then washed with PBS/T for 3 times and incubated with horseradish peroxidase (HRP) conjugated secondary antibody (CST #7074, 1:5000) for 1 hour at room temperature. The abundance of H3K4me3 and total H3 were measured by ECL substrates chemiluminescence (Pierce, #34080) on a plate reader (PerkinElmer EnVison 2104 Mutilable Reader). Percentage inhibition was calculated against DMSO control after normalization of H3K4me3 signal to H3 signal for individual samples. The data were then fit to a dose response curve using GraphPad Prism for IC50 calculation.
(An ELISA detects its analyte on a solid surface through an enzyme-linked reagent.)

The next test relates to MV4-11 cells. Nature of the test: MV4-11 6-Day Cell Growth CTG (CellTiter-Glo) Assay. Type of test: cell-based. Particulars: Homo sapiens, MV4-11, 144 h, MV4-11 cell growth CellTiter-Glo, 6 days. On the procedure: MV4-11 6-Day Cell Growth CTG (CellTiter-Glo) Assay
Acute myeloid leukemia cell MV4-11 (ATCC® CRL-9591™) was cultured with RPMI 1640 medium (Thermo Fisher Scientific, cat #11875) supplemented with 10% FBS (Thermo Fisher Scientific, cat #10099141) in humidified incubator at 37° C., 5% CO2. To assess the effect of MLL1 inhibition on cell growth, the compound of the present invention was dissolved in DMSO and serially diluted at 1:3 for 12 points starting from 10 mM then 200 nL for the replicate of each dose per well was dispensed to Viewplate-384 Black (Perkin Elmer). Exponentially growing MV4-11 cells were seeded at the density of 300 cells per well in 40 μL to the plate, so the final compound working concentration starts from 50 μM. After 6 days, 40 μL CellTiter-Glo (Promega, cat #G7573) was added into the cell culture well and luminescence was read with Envision (Perkin Elmer) to determine the viable cells. The percentage inhibition was calculated against the samples treated with DMSO only and the data were used for dose response curve fitting in GraphPad Prism to get the IC50 of representative compound of present invention, which reflects the inhibition of MLL1 activity.
(Cellular ATP, detected with luciferase, serves as a proxy for viable cell number.)

For test [1], the target named is wild type MLL1 four-member complex (MLL1-4C) (Homo sapiens, UniProt Q03164). Nature of the test: MLL1 LC-MS Assay. Type of test: biochemical. Conditions: read-out: LCMS. The protocol: The compounds of the present disclosure were serially and separately diluted 3-fold in DMSO to obtain a total of eight or twelve concentrations. Then the test compounds at each concentration (120 nL of each) were transferred by Mosquito into white Proxiplate plus 384-well microplate (PerkinElmer). Solutions (6 μL) of 60 nM wild type MLL1 four-member complex (MLL1-4C) and 5 μM SAM in the reaction buffer (20 mM Tris-HCl, pH 8.0, 0.01% Tween 20, 1 mM DTT, 10 mM MgCl2, 0.01% BSA) were added to the wells that were then incubated with the test compound for 20 min. A 6 μL solution of 20 μM of the peptide substrate H3K4me0 (histone H3[1-21]-Biotin) in the reaction buffer was added to initiate each reaction. The final components in the reaction solution include 30 nM MLL1-4C, 2.5 μM SAM, and 10 μM H3K4me0 with varying concentration of the compounds. A positive control consisted of 30 nM MLL1-4C, 2.5 μM SAM, and 10 μM substrate in the absence of the test compound, and a negative control consisted of 2.5 μM SAM, and 10 μM substrate only. Each reaction was incubated at rt for 120 min, then stopped by addition of 3 μL per of quench solution (2.5% TFA with 320 nM d4-SAH). The reaction mixture was centrifuged (Eppendorf centrifuge 5810, Rotor A-4-62) for 2 min at 2000 rpm. The SAH production from the enzymatic assays were monitored by LC-MS/MS on an API 4000 triple quadrupole mass spec with Turbolon Spray (Applied Biosystem) coupled with Prominenece UFLC (Shimazu). The level of SAH production were then normalized based on the values coming from the positive and negative controls to give percent enzyme activities. The data were then fit to a dose response equation using the program Helios (Novartis) to get the IC50 values of the test compounds.

Where only a bound is given, the exact number is not on record here.

Take `Nc1ncnc2c1ncn2Cc1c(N2CC[C@](N)(C(=O)NC3CC3)C2)ccc(F)c1CN1CCCC(F)(F)C1` [Example 69]: the IC50 is under 1900 nM with H3K4me3 in MV4-11 cells, under 2000 nM in the test on MV4-11 cells and 50 to 100 nM in test [1].

For the compound `CCc1c(Cl)cc(Cl)c(N2CC[C@](N)(C(=O)N3CCS(=O)(=O)CC3)C2)c1Cn1cnc2c(N)ncnc21` [Example 73], the IC50 in the test on H3K4me3 in MV4-11 cells was under 1900 nM; in the test on MV4-11 cells, under 2000 nM; in test [1] it was over 100 nM.

For the compound `Nc1ncnc2c1ncn2Cc1c(N2CC[C@](N)(C(=O)NC3CC3)C2)ccc(F)c1CO` [Example 76, (R)-3-amino-1-(2-((6-amino-9H-purin-9-yl)methyl)-4-fluoro-3-(hydroxymethyl)phenyl)-N-cyclopropylpyrrolidine-3-carboxamide], the IC50 in the test with H3K4me3 in MV4-11 cells was under 1900 nM; in the test with MV4-11 cells, 2000 to 3000 nM; in test [1], 50 to 100 nM.

`COCc1c(F)ccc(N2CC[C@](N)(C(=O)NC3CC3)C2)c1Cn1cnc2c(N)ncnc21` [Example 77, (R)-3-amino-1-(2-((6-amino-9H-purin-9-yl)methyl)-4-fluoro-3-(methoxymethyl)phenyl)-N-cyclopropylpyrrolidine-3-carboxamide]: the IC50 in the test on H3K4me3 in MV4-11 cells was under 1900 nM; in the test on MV4-11 cells it was under 2000 nM; in test [1], 50 to 100 nM.

For `COCc1c(Cl)ccc(N2CC[C@](N)(C(=O)NC3CC3)C2)c1Cn1cnc2c(N)ncnc21` [Example 78], the IC50 with H3K4me3 in MV4-11 cells was under 1900 nM; in the test with MV4-11 cells, under 2000 nM; in test [1], under 50 nM.

In the case of `Nc1ncnc2c1ncn2Cc1c(N2CC[C@](N)(C(=O)NC3CC3)C2)ccc(Cl)c1COC1CCOC1` (stereo partly drawn) [Example 79], the values for the IC50 (with H3K4me3 in MV4-11 cells; with MV4-11 cells; in test [1]) were under 1900 nM, under 2000 nM and 50 to 100 nM, respectively.

On to `[2H]C([2H])([2H])OCc1c(F)ccc(N2CC[C@](N)(C(=O)NC3CC3)C2)c1Cn1cnc2c(N)ncnc21` [Example 80], for which the figures for the IC50 (in the test with H3K4me3 in MV4-11 cells; with MV4-11 cells; in test [1]) were under 1900 nM, under 2000 nM and 50 to 100 nM, respectively.

Take `[2H]C([2H])([2H])OCc1c(Cl)ccc(N2CC[C@](N)(C(=O)NC3CC3)C2)c1Cn1cnc2c(N)ncnc21` [Example 81]: the figures for the IC50 (in the test on H3K4me3 in MV4-11 cells; with MV4-11 cells; in test [1]) were under 1900 nM, under 2000 nM and under 50 nM, respectively.

For the compound `Nc1ncnc2c1ncn2Cc1c(Br)cc(Cl)cc1N1CC[C@](N)(c2nnn[nH]2)C1` [Example 83, (R)-9-(2-(3-amino-3-(1H-tetrazol-5-yl)pyrrolidin-1-yl)-6-bromo-4-chlorobenzyl)-9H-purin-6-amine], the IC50 in the test on H3K4me3 in MV4-11 cells was under 1900 nM; in the test with MV4-11 cells, under 2000 nM; in test [1], under 50 nM.

With `CCc1cc(-c2ccccc2F)cc(N2CC[C@](N)(C(=O)NC3CC3)C2)c1Cn1cnc2c(N)ncnc21` [Example 92, (R)-3-amino-1-(4-((6-amino-9H-purin-9-yl)methyl)-5-ethyl-2′-fluoro-[1,1′-biphenyl]-3-yl)-N-cyclopropylpyrrolidine-3-carboxamide], the IC50 in the test on H3K4me3 in MV4-11 cells was under 1900 nM; with MV4-11 cells, under 2000 nM; in test [1] it was under 50 nM.

On to `Nc1ncnc2c1ncn2Cc1c(N2CC[C@](N)(C(=O)NC3CC3)C2)cc(-c2cccs2)cc1C(F)(F)F` [Example 94], for which the values for the IC50 (in the test with H3K4me3 in MV4-11 cells; in the test on MV4-11 cells; in test [1]) were under 1900 nM, under 2000 nM and under 50 nM, respectively.

For the compound `CCc1cc(-c2cccnc2)cc(N2CC[C@](N)(C(=O)NC3CC3)C2)c1Cn1cnc2c(N)ncnc21` [Example 95], the IC50 is under 1900 nM with H3K4me3 in MV4-11 cells, under 2000 nM with MV4-11 cells and under 50 nM in test [1].

Regarding `CCc1cc(-c2cscn2)cc(N2CC[C@](N)(C(=O)NC3CC3)C2)c1Cn1cnc2c(N)ncnc21` [Example 98, (R)-3-amino-1-(2-((6-amino-9H-purin-9-yl)methyl)-3-ethyl-5-(thiazol-4-yl)phenyl)-N-cyclopropylpyrrolidine-3-carboxamide], the IC50 with H3K4me3 in MV4-11 cells was under 1900 nM; in the test on MV4-11 cells, under 2000 nM; in test [1], 50 to 100 nM.

In the case of `CCc1cc(-c2cnccn2)cc(N2CC[C@](N)(C(=O)NC3CC3)C2)c1Cn1cnc2c(N)ncnc21` [Example 100, (R)-3-amino-1-(2-((6-amino-9H-purin-9-yl)methyl)-3-ethyl-5-(pyrazin-2-yl)phenyl)-N-cyclopropylpyrrolidine-3-carboxamide], the IC50 in the test on H3K4me3 in MV4-11 cells is under 1900 nM; in the test on MV4-11 cells, under 2000 nM; in test [1], under 50 nM.

Turning to `Nc1ncnc2c1ncn2Cc1c(N2CC[C@](N)(C(=O)NC3CC3)C2)cc(CN2CCOCC2)c(F)c1Cl` [Example 103, (R)-3-amino-1-(2-((6-amino-9H-purin-9-yl)methyl)-3-chloro-4-fluoro-5-(morpholinomethyl)phenyl)-N-cyclopropylpyrrolidine-3-carboxamide], the IC50 with H3K4me3 in MV4-11 cells was under 1900 nM; in the test with MV4-11 cells, under 2000 nM; in test [1], under 50 nM.

In the case of `N#Cc1c(Cl)ccc(N2CC[C@](N)(C(=O)NC3CC3)C2)c1Cn1cnc2c(N)ncnc21` [Example 104], the IC50 in the test with H3K4me3 in MV4-11 cells was under 1900 nM; in the test with MV4-11 cells it was under 2000 nM; in test [1] it was under 50 nM.

Consider `Nc1ncnc2c1ncn2Cc1c(N2CC[C@](N)(C(=O)NC3CC3)C2)cc(Cl)c(Cl)c1CN1CCOCC1` [Example 105], for which the IC50 with H3K4me3 in MV4-11 cells was under 1900 nM; in the test with MV4-11 cells, under 2000 nM; in test [1], under 50 nM.

For the compound `CCc1cc(Cl)cc(N2CC[C@](N)(CO)C2)c1Cn1cnc2c(N)ncnc21` [Example 108], the IC50 in the test on H3K4me3 in MV4-11 cells is under 1900 nM; with MV4-11 cells, under 2000 nM; in test [1] it was under 50 nM.

For the compound `COC[C@@]1(N)CCN(c2ccc3ccccc3c2Cn2cnc3c(N)ncnc32)C1` [Example 109], the IC50 was under 1900 nM in the test on H3K4me3 in MV4-11 cells, under 2000 nM in the test on MV4-11 cells and 50 to 100 nM in test [1].

Consider `Nc1ncnc2c1ncn2Cc1c(I)c(F)c2c(c1N1CC[C@](N)(C(=O)NC3CC3)C1)OCC2` [Example 111], for which the IC50 with H3K4me3 in MV4-11 cells was 1900 to 3000 nM; with MV4-11 cells it was 2000 to 3000 nM; in test [1] it was under 50 nM.

In the case of `CCSc1c(Cl)ccc(N2CC[C@](N)(C(=O)NC3CC3)C2)c1Cn1cnc2c(N)ncnc21` [Example 113], the IC50 in the test with H3K4me3 in MV4-11 cells is under 1900 nM; in the test with MV4-11 cells, under 2000 nM; in test [1] it was under 50 nM.

For the compound `Nc1ncnc2c1ncn2Cc1c(N2CC[C@](N)(C(=O)NCc3cccnc3O)C2)ccc(F)c1C(F)(F)F` [Example 120], the results for the IC50 (in the test on H3K4me3 in MV4-11 cells; with MV4-11 cells; in test [1]) were under 1900 nM, under 2000 nM and 50 to 100 nM, respectively.

The values above are taken from patent publication US20220380371A1, “MLL1 INHIBITORS AND ANTI-CANCER AGENTS” (NOVARTIS AG, priority 2019, published 2022).
